Laboratory results taken from patent publication US12371454B2, “Cyclic peptide compound having Kras inhibitory action” (priority 2019, dated 2025).
Starred links: 1 amine or outer side, 2 acyl side, 3 side chain; linkers in the order of their positions; H or OH if unused. Positions of bridges follow the written chain, without caps; N, C: chain ends. Non-standard residues stand in square brackets, D forms with d. Residues, ends and D or L forms follow the SMILES beside them. *: point of attachment. hPhe(3-Cl-4-CF3) = N[C@@H](CCc1ccc(C(F)(F)F)c(Cl)c1)C(=O)O; Thiomorpholino(1,1-dioxo) = O=S1(=O)CCN(*)CC1; NMePhe(4-Cl) = CN[C@@H](Cc1ccc(Cl)cc1)C(=O)O; X51 = O=C([C@H](Cc1cc(F)cc(I)c1)N[*:1])[*:2]; NMePhe(4-Me) = CN[C@@H](Cc1ccc(C)cc1)C(=O)O; NMePhe(4-F) = CN[C@@H](Cc1ccc(F)cc1)C(=O)O; X83 = O=C([C@H](Cc1cncc(Br)c1)N[*:1])[*:2]; X20 = O=C([C@H](Cc1ccc(Br)s1)N[*:1])[*:2]; Phe(3-I) = N[C@@H](Cc1cccc(I)c1)C(=O)O; Pro(4,4-F2) = O=C(O)[C@@H]1CC(F)(F)CN1; NMeY = CN[C@@H](Cc1ccc(O)cc1)C(=O)O; NMeCha = CN[C@@H](CC1CCCCC1)C(=O)O; NMeChg = CN[C@H](C(=O)O)C1CCCCC1; NMeD = CN[C@@H](CC(=O)O)C(=O)O; NMeL = CN[C@@H](CC(C)C)C(=O)O; NMeNva = CCC[C@H](NC)C(=O)O; NMeV = CN[C@H](C(=O)O)C(C)C; d(β3hA) = C[C@@H](N)CC(=O)O; NMeAbu = CC[C@H](NC)C(=O)O; NMeA = CN[C@@H](C)C(=O)O; NMeAib = CNC(C)(C)C(=O)O; Nle = CCCC[C@H](N)C(=O)O; Piperidide = C1CCN(*)CC1; Pra = C#CC[C@H](N)C(=O)O; Pyrrolidide = C1CCN(*)C1; Ac5c = NC1(C(=O)O)CCCC1; Aze = O=C(O)[C@@H]1CCN1; CF3 = FC(F)(F)*; Sar = CNCC(=O)O

target: T1, Kras and SOS1 (biotin-tagged human Kras loaded with GDP, His-tagged human SOS1) (Homo sapiens, UniProt P01116, G12D); assay: Protein-protein interaction inhibition between Kras and SOS1 (KrasGl2D-SOS PPI) using AlphaScreen; format: binding; settings: AlphaScreen; biotin-tagged human Kras loaded with GDP, His-tagged human SOS1; read-out: KRAS G12D-SOS PPI IC50
T1 construct: made in house; host or cells: E. coli (stated for Kras only)
Procedure, shortened: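 Energy transfer from nickel-chelate donor beads bound to His-SOS1 to streptavidin acceptor beads bound to biotin-Kras, expressed in E. coli and loaded with GDP after purification, was monitored. Donors were excited at 680 nm; singlet oxygen reaching acceptors gave emission read at 520-620 nm.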

T1 sequence (P01116 1-188 isoform P01116-2 G12D): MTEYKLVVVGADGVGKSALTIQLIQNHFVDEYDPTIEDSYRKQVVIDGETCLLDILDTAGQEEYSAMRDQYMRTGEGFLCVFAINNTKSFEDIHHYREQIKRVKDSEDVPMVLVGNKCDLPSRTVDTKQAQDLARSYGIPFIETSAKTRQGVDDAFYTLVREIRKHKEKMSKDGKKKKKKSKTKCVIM

| SMILES | IC50 |
| --- | --- |
| CCCC[C@@H]1NC(=O)[C@H](Cc2ccc(Br)s2)NC(=O)CN(C)C(=O)[C@H](Cc2ccc(Cl)cc2)N(C)C(=O)CN(C)C(=O)CN(C)C(=O)[C@H]([C@@H](C)CC)NC(=O)[C@H](CC(C)C)N(C)C(=O)C[C@@H](C(=O)N2CCCCC2)N(C)C(=O)[C@H](CC(C)C)NC(=O)C(C)(C)N(C)C1=O [Compound 1216] ([NMeL]I[Sar][Sar][NMePhe(4-Cl)][Sar][X20][Nle][NMeAib]L[NMeD]-Piperidide; lactam N-11) | 0.12 µM |
| C#CC[C@@H]1NC(=O)[C@H](Cc2cccc(I)c2)NC(=O)CN(C)C(=O)[C@H](Cc2ccc(OC(F)(F)F)cc2)N(C)C(=O)CN(C)C(=O)CN(C)C(=O)[C@H]([C@@H](C)CC)NC(=O)[C@H](CC(C)C)N(C)C(=O)C[C@@H](C(=O)N2CCCCC2)N(C)C(=O)[C@H](CC(C)C)NC(=O)C(C)(C)N(C)C1=O [Compound 1219] ([NMeL]I[Sar][Sar][NMeY](CF3)[Sar][Phe(3-I)][Pra][NMeAib]L[NMeD]-Piperidide; lactam N-11) | 0.016 µM |
| CCCC[C@@H]1NC(=O)[C@H](Cc2cc(F)cc(I)c2)NC(=O)CN(C)C(=O)[C@H](Cc2ccc(OC)cc2)N(C)C(=O)[C@@H]2CCN2C(=O)[C@H](C)N(C)C(=O)[C@H]([C@@H](C)CC)NC(=O)[C@H](CC)N(C)C(=O)C[C@@H](C(=O)N2CCCCC2)N(C)C(=O)[C@H](CC(C)C)NC(=O)C(C)(C)N(C)C1=O [Compound 1226] ([NMeAbu]I[NMeA][Aze][NMeY](Me)[Sar][X51][Nle][NMeAib]L[NMeD]-Piperidide; lactam N-11) | 0.015 µM |
| C#CC[C@@H]1NC(=O)[C@H](Cc2cccc(I)c2)NC(=O)CN(C)C(=O)[C@H](Cc2ccc(F)cc2)N(C)C(=O)[C@@H]2CCN2C(=O)[C@H](C)N(C)C(=O)[C@H]([C@@H](C)CC)NC(=O)[C@H](CC(C)C)N(C)C(=O)C[C@@H](C(=O)N2CCCCC2)N(C)C(=O)[C@H](CC(C)C)NC(=O)C(C)(C)N(C)C1=O [Compound 1230] ([NMeL]I[NMeA][Aze][NMePhe(4-F)][Sar][Phe(3-I)][Pra][NMeAib]L[NMeD]-Piperidide; lactam N-11) | 0.098 µM |
| CCC[C@H]1C(=O)N[C@@H]([C@@H](C)CC)C(=O)N(C)CC(=O)N(C)CC(=O)N(C)[C@@H](CC2CCCCC2)C(=O)N(C)CC(=O)N[C@@H](CCc2ccc(C(F)(F)F)c(Cl)c2)C(=O)N2CC(F)(F)C[C@H]2C(=O)NC2(CCCC2)C(=O)N(C)[C@@H](C2CCCCC2)C(=O)N(C)[C@H](C(=O)N2CCCC2)CC(=O)N1C [Compound 1232] ([NMeNva]I[Sar][Sar][NMeCha][Sar][hPhe(3-Cl-4-CF3)][Pro(4,4-F2)][Ac5c][NMeChg][NMeD]-Pyrrolidide; lactam N-11) | 0.00047 µM |
| CC[C@H](C)[C@@H]1NC(=O)[C@H](CC(C)C)N(C)C(=O)C[C@@H](C(=O)N2CCS(=O)(=O)CC2)N(C)C(=O)[C@H](C(C)C)N(C)C(=O)C2(CCCC2)NC(=O)[C@@H]2CCCN2C(=O)[C@H](CCc2ccc(C(F)(F)F)c(Cl)c2)NC(=O)CN(C)C(=O)[C@H](CC2CCCCC2)N(C)C(=O)[C@@H]2CCN2C(=O)[C@H](C)N(C)C1=O [Compound 1238] ([NMeL]I[NMeA][Aze][NMeCha][Sar][hPhe(3-Cl-4-CF3)]P[Ac5c][NMeV][NMeD]-{Thiomorpholino(1,1-dioxo)}; lactam N-11) | 0.0099 µM |
| CC[C@H](C)[C@@H]1NC(=O)[C@H](CC(C)C)N(C)C(=O)C[C@@H](C)NC(=O)[C@H](C)N(C)C(=O)C2(CCCC2)NC(=O)[C@@H]2CCCN2C(=O)[C@H](CCc2ccc(C(F)(F)F)c(Cl)c2)NC(=O)CN(C)C(=O)[C@H](Cc2ccc(C)cc2)N(C)C(=O)[C@@H]2CCN2C(=O)[C@H](C)N(C)C1=O [Compound 1239] (cyclo([Ac5c][NMeA][d(β3hA)][NMeL]I[NMeA][Aze][NMePhe(4-Me)][Sar][hPhe(3-Cl-4-CF3)]P)) | 0.18 µM |
| CCCC[C@@H]1NC(=O)[C@H](Cc2cncc(Br)c2)NC(=O)CN(C)C(=O)[C@H](Cc2ccc(OC)cc2)N(C)C(=O)[C@@H]2CCN2C(=O)[C@H](C)N(C)C(=O)[C@H]([C@@H](C)CC)NC(=O)[C@H](CC)N(C)C(=O)C[C@@H](C(=O)N2CCCCC2)N(C)C(=O)[C@H](CC(C)C)NC(=O)C(C)(C)N(C)C1=O [Compound 1240] ([NMeAbu]I[NMeA][Aze][NMeY](Me)[Sar][X83][Nle][NMeAib]L[NMeD]-Piperidide; lactam N-11) | 0.29 µM |
| CC[C@H](C)[C@@H]1NC(=O)[C@H](CC(C)C)N(C)C(=O)C[C@@H](C(=O)N2CCCCC2)N(C)C(=O)[C@H](C(C)C)N(C)C(=O)C2(CCCC2)NC(=O)[C@H](C)N(C)C(=O)[C@H](CCc2ccc(C(F)(F)F)c(Cl)c2)NC(=O)CN(C)C(=O)[C@H](CC2CCCCC2)N(C)C(=O)[C@@H]2CCN2C(=O)[C@H](C)N(C)C1=O [Compound 1243] ([NMeL]I[NMeA][Aze][NMeCha][Sar][hPhe(3-Cl-4-CF3)][NMeA][Ac5c][NMeV][NMeD]-Piperidide; lactam N-11) | 0.027 µM |
